Results: patent publication US11434221B2, “Pyrazine-4-carbamate or -urea derivatives as herbicides” (Syngenta Participations AG, priority 2017, dated 2022)

Experiments:
Type in all cases: in vivo
Parameters in all cases: key: 5=total damage to plant; 0=no damage to plant
[1] = test system: Alopecurus myosuroides (ALOMY); test: Pre-emergence herbicidal activity, glasshouse pot test; conditions: Rate 1000 g/ha; sprayed one day after sowing; evaluated after 13 days
How it was run: (§1)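 Pre-em spray, day 1 after sowing; vehicle acetone/water 50:50 + 0.5% Tween 20. Glasshouse 24/16 °C, 14 h light, 65% RH, watered 2×/day. Scored d13, 0 (no damage) to 5 (total).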

Avena fatua (AVEFA) [2] = test: as above; conditions: Rate 1000 g/ha; sprayed one day after sowing; evaluated after 13 days
How it was run: as §1

[3] = test system: Echinochloa crus-galli (ECHCG); test: as above; conditions: Rate 1000 g/ha; sprayed one day after sowing; evaluated after 13 days
How it was run: as §1

Lolium perenne (LOLPE) [4] = test: as above; conditions: Rate 1000 g/ha; sprayed one day after sowing; evaluated after 13 days
How it was run: as §1

Setaria faberi (SETFA) [5] = test: as above; conditions: Rate 1000 g/ha; sprayed one day after sowing; evaluated after 13 days
How it was run: as §1

[6] = test system: Triticum aestivium (TRZAW); test: as above; conditions: Rate 1000 g/ha; sprayed one day after sowing; evaluated after 13 days
How it was run: as §1

[7] = test system: Alopecurus myosuroides (ALOMY); test: Post-emergence herbicidal activity, glasshouse pot test; conditions: Rate 1000 g/ha; sprayed after 8 days cultivation; evaluated after 13 days
How it was run: (§2)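 Pot-grown plants were sprayed 8 days after sowing (post-emergence) with active ingredient in acetone/water 50:50 containing 0.5% Tween 20. Glasshouse conditions were 24/16 °C, 14 h light and 65% humidity. Damage was scored 0 (none) to 5 (total) after 13 days.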

Avena fatua (AVEFA) [8] = test: as above; conditions: Rate 1000 g/ha; sprayed after 8 days cultivation; evaluated after 13 days
How it was run: as §2

[9] = test system: Echinochloa crus-galli (ECHCG); test: as above; conditions: Rate 1000 g/ha; sprayed after 8 days cultivation; evaluated after 13 days
How it was run: as §2

Lolium perenne (LOLPE) [10] = test: as above; conditions: Rate 1000 g/ha; sprayed after 8 days cultivation; evaluated after 13 days
How it was run: as §2

Setaria faberi (SETFA) [11] = test: as above; conditions: Rate 1000 g/ha; sprayed after 8 days cultivation; evaluated after 13 days
How it was run: as §2

[12] = test system: Triticum aestivium (TRZAW); test: as above; conditions: Rate 1000 g/ha; sprayed after 8 days cultivation; evaluated after 13 days
How it was run: as §2

Compound	Control of weed species after pre-emergence application, ALOMY (damage score 0-5) [1]	Control of weed species after pre-emergence application, AVEFA (damage score 0-5) (Avena fatua (AVEFA) [2])	Control of weed species after pre-emergence application, ECHCG (damage score 0-5) [3]	Control of weed species after pre-emergence application, LOLPE (damage score 0-5) (Lolium perenne (LOLPE) [4])	Control of weed species after pre-emergence application, SETFA (damage score 0-5) (Setaria faberi (SETFA) [5])	Control of weed species after pre-emergence application, TRAZW (damage score 0-5) [6]	Control of weed species after post-emergence application, ALOMY (damage score 0-5) [7]	Control of weed species after post-emergence application, AVEFA (damage score 0-5) (Avena fatua (AVEFA) [8])	Control of weed species after post-emergence application, ECHCG (damage score 0-5) [9]	Control of weed species after post-emergence application, LOLPE (damage score 0-5) (Lolium perenne (LOLPE) [10])	Control of weed species after post-emergence application, SETFA (damage score 0-5) (Setaria faberi (SETFA) [11])	Control of weed species after post-emergence application, TRAZW (damage score 0-5) [12]
C=Cc1nc(-c2cncc(F)c2)cnc1N(C(=O)OC(C)(C)C)C(=O)OC(C)(C)C [Compound H20]	0	2	2	1	4	1	0	2	4	3	5	1
CC(C)(C)OC(=O)N(C(=O)OC(C)(C)C)c1ncc(-c2cncc(F)c2)nc1C1=CCCCC1 [Compound H15]	0	0	0	0	0	0	0	1	0	0	2	0
